≈ marks a conversion by molar mass, not a printed value.
Tested on: T1, Cryptococcus neoformans (H99)
T1 construct: H99
Experiment: microbe, parasite or virus in culture
Design: CLSI M27-A3 broth microdilution in RPMI 1640 at 37 C, growth inhibition of C. neoformans (MIC)
Details: Cryptococcus neoformans, read-out: MIC (μg/mL) against: / Cryptococcus neoformans (H99)^a
Procedure: In vitro antifungal activities of FK506, FK520, and analogs were assessed in RPMI 1640 (Sigma-Aldrich) for all strains tested. MICs/minimum effective concentrations (MECs) for each drug were measured using modified Clinical and Laboratory Standards Institute (CLSI) M38-A2 and M27-A3 standard in vitro antifungal susceptibility protocols. Broth microdilution assays for MIC/MEC assessment were performed as described previously ([33]). All antifungal assays with C. neoformans were performed at 37°C. Antifungal susceptibility testing for C. albicans was performed in the presence of a uniform 1 μg/mL concentration of fluconazole to sensitize the organism to calcineurin inhibition. MICs/minimum effective concentrations (MECs) were determined for each of the novel analogs against the three major human fungal pathogens, A. fumigatus, C. neoformans, and C. albicans. […] Thus, analogs of FK506 and FK520 can tolerate up to 100-fold reduction in antifungal activity and still be considered for in vivo testing. For C. neoformans, MICs were the most uniform and ranged from 0.2 to 2 μg/mL, which is between 4- and 40-fold reduced for antifungal activity. C. albicans MICs ranged from 0.2 to 6.25 μg/mL, which is between 10- and 312.5-fold reduced for activity. Despite being one of the most difficult to treat fungal infections, all six analogs were active against A. fumigatus with MECs ranging from 1 to 2 μg/mL or a 62.5- to 125-fold reduction in activity.

`C=CC[C@@H]1/C=C(\C)C[C@H](C)C[C@H](OC)[C@H]2O[C@@](O)(C(=O)C(=O)N3CCCC[C@H]3C(=O)O[C@H](/C(C)=C/[C@@H]3CC[C@@H](O)[C@H](OC)C3)[C@H](C)[C@@H](O)C/C1=N/NC(C)=O)[C@H](C)C[C@@H]2OC` [JH-FK-01, APX879] was tested. Which MIC did it give?
The MIC was 1 µg/mL (≈ 1.16 µM).

— PMC9239059, “Structure-Guided Synthesis of FK506 and FK520 Analogs with Increased Selectivity Exhibit In Vivo Therapeutic Efficacy against Cryptococcus” (mBio, 2022)
